Measurements published in ChEMBL document CHEMBL1133420, “Parallel synthesis of a series of subtype-selective NMDA receptor antagonists” (Bioorg Med Chem Lett, 2000).

Assays:
Assay type in all cases: functional, cell-based, Oocyte
[1] = target: Glutamate receptor ionotropic, NMDA 2C (Homo sapiens, UniProt Q05586+Q14957); test: Antagonistic activity against NR1A/2C receptor in frog oocytes
[2] = target: Glutamate receptor ionotropic, NMDA 2A (Homo sapiens, UniProt Q05586+Q12879); test: Antagonistic activity against NR1A/2A receptors in frog oocytes
Chain of Glutamate receptor ionotropic, NMDA 2A (Q12879 whole entry, one chain of several): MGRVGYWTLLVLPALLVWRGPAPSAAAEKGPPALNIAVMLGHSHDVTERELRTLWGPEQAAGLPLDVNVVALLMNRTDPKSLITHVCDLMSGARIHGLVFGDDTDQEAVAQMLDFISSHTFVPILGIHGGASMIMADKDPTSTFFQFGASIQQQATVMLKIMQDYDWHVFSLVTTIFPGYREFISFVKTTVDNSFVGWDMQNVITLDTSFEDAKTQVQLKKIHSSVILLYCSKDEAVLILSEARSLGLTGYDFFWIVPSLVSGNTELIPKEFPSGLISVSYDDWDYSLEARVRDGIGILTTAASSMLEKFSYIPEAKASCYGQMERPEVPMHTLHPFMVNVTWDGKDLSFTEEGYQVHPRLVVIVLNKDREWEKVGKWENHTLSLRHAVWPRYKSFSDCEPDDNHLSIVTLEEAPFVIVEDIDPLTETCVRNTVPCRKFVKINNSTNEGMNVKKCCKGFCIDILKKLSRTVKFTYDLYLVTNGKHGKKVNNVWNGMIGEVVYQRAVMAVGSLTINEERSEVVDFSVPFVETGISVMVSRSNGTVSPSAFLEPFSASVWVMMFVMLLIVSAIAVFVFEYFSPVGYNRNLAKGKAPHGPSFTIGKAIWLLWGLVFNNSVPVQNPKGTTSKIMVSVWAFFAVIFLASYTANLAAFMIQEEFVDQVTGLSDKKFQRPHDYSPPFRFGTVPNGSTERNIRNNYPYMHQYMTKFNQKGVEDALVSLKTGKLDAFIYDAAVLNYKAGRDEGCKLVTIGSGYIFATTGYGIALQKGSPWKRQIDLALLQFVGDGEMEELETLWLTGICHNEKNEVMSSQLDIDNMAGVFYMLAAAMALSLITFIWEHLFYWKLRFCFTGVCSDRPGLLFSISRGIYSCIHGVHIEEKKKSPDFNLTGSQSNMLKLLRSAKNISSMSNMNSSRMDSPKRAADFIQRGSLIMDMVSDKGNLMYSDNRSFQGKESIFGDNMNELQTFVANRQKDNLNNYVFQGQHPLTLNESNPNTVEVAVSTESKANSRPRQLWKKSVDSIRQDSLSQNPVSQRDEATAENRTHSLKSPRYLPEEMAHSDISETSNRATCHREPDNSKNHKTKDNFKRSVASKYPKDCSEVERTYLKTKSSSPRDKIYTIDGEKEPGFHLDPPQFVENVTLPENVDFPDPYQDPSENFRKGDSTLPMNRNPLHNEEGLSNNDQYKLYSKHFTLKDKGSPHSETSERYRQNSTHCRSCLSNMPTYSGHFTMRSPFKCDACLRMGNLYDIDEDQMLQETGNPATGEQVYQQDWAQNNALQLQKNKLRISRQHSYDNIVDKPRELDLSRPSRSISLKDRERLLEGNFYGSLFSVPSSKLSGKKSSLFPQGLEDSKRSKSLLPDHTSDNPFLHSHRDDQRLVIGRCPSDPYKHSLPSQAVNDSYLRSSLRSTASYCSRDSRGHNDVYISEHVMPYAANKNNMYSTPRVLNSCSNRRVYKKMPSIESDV

[3] = target: Glutamate receptor ionotropic, NMDA 2B (Homo sapiens, UniProt Q05586+Q13224); test: Antagonistic activity against NR1A/2B receptor in frog oocytes
Chain of Glutamate receptor ionotropic, NMDA 2B (Q13224 whole entry, one chain of several): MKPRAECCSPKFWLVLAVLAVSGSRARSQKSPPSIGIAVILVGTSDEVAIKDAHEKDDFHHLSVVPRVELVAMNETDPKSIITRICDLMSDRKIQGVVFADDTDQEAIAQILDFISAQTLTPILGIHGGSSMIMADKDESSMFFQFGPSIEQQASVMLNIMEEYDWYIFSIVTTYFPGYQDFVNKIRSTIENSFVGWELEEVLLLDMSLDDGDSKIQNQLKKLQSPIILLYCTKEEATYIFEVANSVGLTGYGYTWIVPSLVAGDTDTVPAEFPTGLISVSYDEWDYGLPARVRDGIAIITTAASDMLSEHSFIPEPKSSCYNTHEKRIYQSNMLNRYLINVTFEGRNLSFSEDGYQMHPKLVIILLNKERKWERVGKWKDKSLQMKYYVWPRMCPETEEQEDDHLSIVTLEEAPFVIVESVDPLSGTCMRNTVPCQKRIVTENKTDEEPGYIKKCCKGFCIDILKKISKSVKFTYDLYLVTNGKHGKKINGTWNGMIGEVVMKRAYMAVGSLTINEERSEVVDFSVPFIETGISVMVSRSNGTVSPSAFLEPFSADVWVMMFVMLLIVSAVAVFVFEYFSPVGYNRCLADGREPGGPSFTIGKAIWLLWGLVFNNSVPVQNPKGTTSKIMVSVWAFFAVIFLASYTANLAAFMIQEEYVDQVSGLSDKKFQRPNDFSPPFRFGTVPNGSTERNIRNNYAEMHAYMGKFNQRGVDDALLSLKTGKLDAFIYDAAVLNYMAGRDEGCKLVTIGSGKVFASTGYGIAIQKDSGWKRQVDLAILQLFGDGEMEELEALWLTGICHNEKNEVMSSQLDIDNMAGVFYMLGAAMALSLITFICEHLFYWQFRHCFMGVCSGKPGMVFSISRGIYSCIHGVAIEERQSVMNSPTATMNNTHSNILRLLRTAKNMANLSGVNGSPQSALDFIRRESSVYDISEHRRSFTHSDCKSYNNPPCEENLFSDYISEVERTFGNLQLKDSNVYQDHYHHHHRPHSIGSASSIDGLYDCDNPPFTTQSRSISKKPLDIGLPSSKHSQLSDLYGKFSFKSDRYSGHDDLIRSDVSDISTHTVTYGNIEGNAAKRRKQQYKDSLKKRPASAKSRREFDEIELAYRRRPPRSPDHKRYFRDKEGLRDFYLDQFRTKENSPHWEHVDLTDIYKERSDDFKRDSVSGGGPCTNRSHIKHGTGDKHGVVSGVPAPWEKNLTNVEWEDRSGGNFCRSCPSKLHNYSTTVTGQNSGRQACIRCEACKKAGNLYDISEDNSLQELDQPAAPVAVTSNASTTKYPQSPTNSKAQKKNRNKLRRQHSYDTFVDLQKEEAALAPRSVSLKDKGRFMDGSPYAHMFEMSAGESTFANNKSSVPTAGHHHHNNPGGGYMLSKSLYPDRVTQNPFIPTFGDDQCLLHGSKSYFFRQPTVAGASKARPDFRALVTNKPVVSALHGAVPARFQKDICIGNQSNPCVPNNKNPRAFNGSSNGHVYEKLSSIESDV

Chain of Glutamate receptor ionotropic, NMDA 2C (Q14957 whole entry, one chain of several): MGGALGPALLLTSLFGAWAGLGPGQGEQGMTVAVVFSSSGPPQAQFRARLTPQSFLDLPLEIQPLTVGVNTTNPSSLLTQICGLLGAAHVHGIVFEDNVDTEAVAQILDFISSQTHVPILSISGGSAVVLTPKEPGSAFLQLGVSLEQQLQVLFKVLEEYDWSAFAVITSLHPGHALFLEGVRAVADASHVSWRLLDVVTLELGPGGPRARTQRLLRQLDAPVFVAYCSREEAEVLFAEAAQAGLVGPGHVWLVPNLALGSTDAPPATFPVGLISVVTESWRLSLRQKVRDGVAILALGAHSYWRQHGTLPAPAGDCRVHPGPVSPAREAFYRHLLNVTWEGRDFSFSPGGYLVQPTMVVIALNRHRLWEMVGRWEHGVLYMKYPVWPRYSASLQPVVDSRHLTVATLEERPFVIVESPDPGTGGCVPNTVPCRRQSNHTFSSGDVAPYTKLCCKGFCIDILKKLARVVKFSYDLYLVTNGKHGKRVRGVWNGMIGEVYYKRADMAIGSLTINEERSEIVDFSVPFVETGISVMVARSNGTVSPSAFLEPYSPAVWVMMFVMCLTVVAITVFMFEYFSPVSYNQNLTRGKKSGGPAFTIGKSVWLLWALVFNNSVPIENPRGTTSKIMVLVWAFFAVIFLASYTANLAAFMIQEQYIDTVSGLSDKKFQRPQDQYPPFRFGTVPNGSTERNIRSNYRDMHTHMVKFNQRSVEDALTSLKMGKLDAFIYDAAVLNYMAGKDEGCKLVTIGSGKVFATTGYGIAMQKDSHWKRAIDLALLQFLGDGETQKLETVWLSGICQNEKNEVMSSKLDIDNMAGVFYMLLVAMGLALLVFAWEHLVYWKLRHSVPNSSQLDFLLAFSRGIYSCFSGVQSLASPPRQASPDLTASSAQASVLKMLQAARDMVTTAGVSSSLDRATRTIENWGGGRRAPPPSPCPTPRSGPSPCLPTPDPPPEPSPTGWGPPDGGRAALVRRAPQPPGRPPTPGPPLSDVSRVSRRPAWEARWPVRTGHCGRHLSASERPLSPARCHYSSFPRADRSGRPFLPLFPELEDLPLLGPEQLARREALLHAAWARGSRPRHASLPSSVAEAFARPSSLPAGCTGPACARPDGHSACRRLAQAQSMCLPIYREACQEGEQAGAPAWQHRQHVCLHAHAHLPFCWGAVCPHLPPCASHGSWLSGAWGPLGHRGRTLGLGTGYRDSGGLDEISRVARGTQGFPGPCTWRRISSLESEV

SMILES | IC50 [1] [µM] | IC50 [2] [µM] | IC50 [3] [µM]
Cc1nnc(SCCN2CCC(Cc3ccccc3)CC2)s1 | > 100 | > 100 | 4.8
c1ccc(CC2CCN(CCSc3nc4ncccc4[nH]3)CC2)cc1 | > 100 | > 100 | 0.24
Nc1n[nH]c(SCCCN2CCC(Cc3ccccc3)CC2)n1 | > 100 | 77 | 0.63
Oc1ccc(C#CCCN2CCC(Cc3ccccc3)CC2)cc1 | > 100 | > 100 | 0.1
Nc1nnc(SCCN2CCC(Cc3ccccc3)CC2)s1 | > 100 | > 100 | 0.21
O=[N+]([O-])c1ccc2nc(SCCCN3CCC(Cc4ccccc4)CC3)[nH]c2c1 | > 100 | 61 | 0.91
Nc1nnc(SCCCN2CCC(Cc3ccccc3)CC2)s1 | > 100 | 73 | 0.56
O=[N+]([O-])c1ccc2[nH]c(SCCN3CCC(Cc4ccccc4)CC3)nc2c1 | > 100 | > 100 | 7.4
Cc1n[nH]c(SCCCN2CCC(Cc3ccccc3)CC2)n1 | > 100 | > 100 | 1
Cc1nnc(SCCCN2CCC(Cc3ccccc3)CC2)s1 | > 100 | > 100 | 6.4
c1ccc(CC2CCN(CCCSc3nc4ncccc4[nH]3)CC2)cc1 | > 100 | > 100 | 1.6
Cc1n[nH]c(SCCN2CCC(Cc3ccccc3)CC2)n1 | > 100 | > 100 | 0.15
Nc1nnc(SCCN2CCC(Cc3ccccc3)CC2)[nH]1 | > 100 | > 100 | 0.035
c1ccc(CC2CCN(CCSc3ncc[nH]3)CC2)cc1 | > 100 | > 100 | 0.07
c1ccc(CC2CCN(CCSc3nc[nH]n3)CC2)cc1 | > 100 | > 100 | 0.13

More lines, now with the values ahead:

IC50 [1] [µM] | IC50 [2] [µM] | IC50 [3] [µM] | SMILES
> 100 | 77 | 0.61 | c1ccc(CC2CCN(CCCSc3ncc[nH]3)CC2)cc1
51 | 64 | 1 | c1ccc(CC2CCN(CCCSc3nc4ccccc4[nH]3)CC2)cc1
> 100 | 35 | 0.1 | Oc1ccc(SCCN2CCC(Cc3ccccc3)CC2)cc1
> 100 | > 100 | 0.93 | c1ccc(CC2CCN(CCSc3ccccc3)CC2)cc1
> 100 | – | 4.3 | c1ccc(CC2CCN(CCCSc3ccccc3)CC2)cc1
> 100 | – | 0.38 | c1ccc(CC2CCN(CCSc3nc4ccccc4[nH]3)CC2)cc1
> 100 | 51 | 0.63 | c1ccc(CC2CCN(CCCSc3nnc[nH]3)CC2)cc1
